# Results published in patent US20050096347A1, “Beta3-Adrenoreceptor agonists, agonist compositions and methods of using” (Molecular Design International, Inc., priority 1997, published 2005).
# Structures can show the parent of a compound that is named as a salt.
# Assays:
# [1] = target: Human β1-AR (Homo sapiens, UniProt P08588); test: CRE-luciferase reporter gene (CRE-LUC) assay, CHO cells expressing human β1-AR
# Procedure: (§1) cAMP response element (CRE)-luciferase(LUC) reporter gene (CRE-LUC) assay. […] The transfected CHO cells were seeded at a density of 40,000/well in 96 well microtiter plates (Culturplate, Packard) and allowed to grow for 20 hours. After 20 hours, the cells were treated with varying drug concentrations (10^−11 to 10^−4 M) for 4 hours. Following drug exposures, the cells were lysed and luciferase activity measured using the LucLite® assay kit (Packard). Changes in light production were measured by a Topcount® luminometer (Packard).
# [2] = target: Human β3-AR (Homo sapiens, UniProt P13945); test: CRE-luciferase reporter gene (CRE-LUC) assay, CHO cells expressing human β3-AR
# Chain of Human β3-AR (P13945 whole entry): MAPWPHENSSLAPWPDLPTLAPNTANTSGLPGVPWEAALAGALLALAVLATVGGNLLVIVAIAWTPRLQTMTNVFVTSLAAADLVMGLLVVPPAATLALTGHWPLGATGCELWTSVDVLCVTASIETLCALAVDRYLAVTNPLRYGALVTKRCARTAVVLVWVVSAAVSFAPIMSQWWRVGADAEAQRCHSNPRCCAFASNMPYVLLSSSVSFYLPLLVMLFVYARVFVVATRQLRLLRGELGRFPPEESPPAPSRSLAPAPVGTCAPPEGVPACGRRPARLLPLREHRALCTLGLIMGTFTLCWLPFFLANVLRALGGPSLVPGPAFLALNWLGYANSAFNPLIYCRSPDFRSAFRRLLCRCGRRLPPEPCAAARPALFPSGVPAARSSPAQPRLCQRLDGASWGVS
# Procedure: as §1
# [3] = target: Human β2-AR (Homo sapiens, UniProt P07550); test: CRE-luciferase reporter gene (CRE-LUC) assay, CHO cells expressing human β2-AR
# Chain of Human β2-AR (P07550 whole entry): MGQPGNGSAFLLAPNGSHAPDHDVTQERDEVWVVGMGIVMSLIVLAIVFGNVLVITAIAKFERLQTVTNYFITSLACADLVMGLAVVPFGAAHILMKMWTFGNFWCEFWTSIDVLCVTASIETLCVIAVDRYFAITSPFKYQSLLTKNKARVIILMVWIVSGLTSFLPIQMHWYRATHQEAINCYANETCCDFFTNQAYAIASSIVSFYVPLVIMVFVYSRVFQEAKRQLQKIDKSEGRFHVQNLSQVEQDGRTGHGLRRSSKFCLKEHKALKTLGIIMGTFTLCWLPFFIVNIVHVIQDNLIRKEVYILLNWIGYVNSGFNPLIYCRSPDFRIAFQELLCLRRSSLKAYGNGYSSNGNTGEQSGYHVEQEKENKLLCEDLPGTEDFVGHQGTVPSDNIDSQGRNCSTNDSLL
# Procedure: as §1
# Chain of Human β1-AR (P08588 whole entry): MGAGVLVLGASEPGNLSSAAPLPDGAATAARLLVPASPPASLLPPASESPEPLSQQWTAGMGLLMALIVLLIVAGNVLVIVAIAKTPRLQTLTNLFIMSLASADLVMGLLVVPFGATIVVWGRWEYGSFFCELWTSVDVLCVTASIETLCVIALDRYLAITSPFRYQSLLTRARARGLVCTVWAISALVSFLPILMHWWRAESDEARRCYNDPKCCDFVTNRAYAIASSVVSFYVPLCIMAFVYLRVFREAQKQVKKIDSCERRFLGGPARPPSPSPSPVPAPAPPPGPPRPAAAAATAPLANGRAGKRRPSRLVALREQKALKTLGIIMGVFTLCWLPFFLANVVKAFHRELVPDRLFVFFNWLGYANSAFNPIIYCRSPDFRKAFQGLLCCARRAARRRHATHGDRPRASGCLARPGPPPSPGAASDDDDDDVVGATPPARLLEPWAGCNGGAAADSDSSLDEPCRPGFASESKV
SMILES,melting point,EC50 [1],EC50 [2],EC50 [3]
"COc1cc2c(cc1OC)C(Cc1cc(I)c(NC(C)=O)c(I)c1)NCC2 (stereo not shown) (as salt: hydrochloride) [6,7-Dimethoxy-acetamidoDITMQ, 1-(4-Acetamido-3,5-diiodobenzyl)-6,7-dimethoxy-1,2,3,4-tetrahydroisoquinoline Hydrochloride]",196 to 200 °C (dec.),–,–,–
COc1c(I)cc(CC2NCCc3cc(O)ccc32)cc1I (stereo not shown) [6-Monophenolic TMQ analog (A-4)],–,1950 nM,35.5 nM,229 nM
